This assay deals with T1, recombinant guanylate cyclase reporter cell line (Rattus norvegicus, UniProt P19686+P20595).
T1 construct: expressed in transfected cells
T1 sequence (P20595 1-619): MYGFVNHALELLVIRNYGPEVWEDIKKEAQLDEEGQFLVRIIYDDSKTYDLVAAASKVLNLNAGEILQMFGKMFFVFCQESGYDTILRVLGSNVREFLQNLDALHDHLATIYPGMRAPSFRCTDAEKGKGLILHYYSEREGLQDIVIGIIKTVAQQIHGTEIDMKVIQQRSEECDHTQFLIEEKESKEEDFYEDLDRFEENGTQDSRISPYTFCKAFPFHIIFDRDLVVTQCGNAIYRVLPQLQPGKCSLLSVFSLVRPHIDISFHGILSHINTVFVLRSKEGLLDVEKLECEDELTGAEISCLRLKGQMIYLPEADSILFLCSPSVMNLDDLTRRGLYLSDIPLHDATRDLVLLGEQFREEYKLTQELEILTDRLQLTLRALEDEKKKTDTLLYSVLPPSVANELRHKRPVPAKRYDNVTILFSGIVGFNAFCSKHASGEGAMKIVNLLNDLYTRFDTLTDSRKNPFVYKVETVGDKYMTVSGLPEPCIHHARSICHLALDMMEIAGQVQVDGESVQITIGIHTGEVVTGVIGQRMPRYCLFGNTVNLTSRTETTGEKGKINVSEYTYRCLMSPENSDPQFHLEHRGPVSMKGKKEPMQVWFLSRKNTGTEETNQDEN
T1 sequence (P19686 1-690): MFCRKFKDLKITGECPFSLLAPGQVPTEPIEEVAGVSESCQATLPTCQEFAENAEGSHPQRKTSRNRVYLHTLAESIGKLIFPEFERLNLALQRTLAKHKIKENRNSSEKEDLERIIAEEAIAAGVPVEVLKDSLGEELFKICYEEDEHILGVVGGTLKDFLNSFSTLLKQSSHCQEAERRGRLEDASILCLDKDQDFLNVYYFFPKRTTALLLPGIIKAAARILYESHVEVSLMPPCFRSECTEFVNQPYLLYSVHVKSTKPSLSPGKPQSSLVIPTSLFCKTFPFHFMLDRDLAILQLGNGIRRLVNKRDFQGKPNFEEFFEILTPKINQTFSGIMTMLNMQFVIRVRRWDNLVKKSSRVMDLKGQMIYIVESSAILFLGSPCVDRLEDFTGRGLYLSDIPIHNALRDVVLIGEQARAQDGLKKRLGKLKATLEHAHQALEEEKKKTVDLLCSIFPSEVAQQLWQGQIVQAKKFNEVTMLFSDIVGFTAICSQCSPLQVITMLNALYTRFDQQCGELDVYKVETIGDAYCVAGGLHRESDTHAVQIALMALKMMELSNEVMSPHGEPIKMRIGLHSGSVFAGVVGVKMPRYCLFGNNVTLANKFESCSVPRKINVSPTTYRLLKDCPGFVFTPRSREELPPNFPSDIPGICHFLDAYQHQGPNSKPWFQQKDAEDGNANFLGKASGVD
Briefly: Action on recombinant guanylate cyclase reporter cell line. It is filed as cell-based. Particulars: in some cases mean values obtained from individual determinations. The protocol: B-2. Action on Recombinant Guanylate Cyclase Reporter Cell Line
The cellular action of the compounds according to the invention is determined on a recombinant guanylate cyclase reporter cell line, as described in F. Wunder et al., Anal. Biochem. 339, 104-112 (2005).
Representative values (MEC=minimal effective concentration) for the compounds according to the invention are shown in the following table (in some cases as mean values obtained from individual determinations): […]

The values that follow come from patent US8946215B2, “Hydroxy-substituted imidazo[1,2-a]pyridinecarboxamides and their use” (Bayer Pharma Aktiengesellschaft, priority 2012, dated 2015).

Each structure is given as a SMILES string. Counter-ions that a name gives are not always drawn.

For `Cc1nc2c(OCc3c(F)cccc3F)cccn2c1C(=O)NC(c1ccc(F)cc1)C(C)(C)O` (racemic) [Example 152, rac-8-[(2,6-difluorobenzyl)oxy]-N-[1-(4-fluorophenyl)-2-hydroxy-2-methylpropyl]-2-methylimidazo[1,2-a]pyridine-3-carboxamide], the “MEC (minimal effective concentration)” value amounted to 0.3 µM.

Regarding `CCOCC(CO)NC(=O)c1c(C)nc2c(OCc3c(F)cccc3F)cccn12` (racemic) [Example 160, rac-8-[(2,6-Difluorobenzyl)oxy]-N-(1-ethoxy-3-hydroxypropan-2-yl)-2-methylimidazo[1,2-a]-pyridine-3-carboxamide], the “MEC (minimal effective concentration)” value stood at 0.3 µM.

Regarding `CCCOCC(CO)NC(=O)c1c(C)nc2c(OCc3c(F)cccc3F)cccn12` (racemic) [Example 162, rac-8-[(2,6-Difluorobenzyl)oxy]-N-(1-hydroxy-3-propoxypropan-2-yl)-2-methylimidazo[1,2-a]-pyridine-3-carboxamide], the “MEC (minimal effective concentration)” value is 0.3 µM.

Regarding `Cc1nc2c(OCc3c(F)cccc3F)cccn2c1C(=O)NC(CO)COCC(C)C` (racemic) [Example 163, rac-8-[(2,6-Difluorobenzyl)oxy]-N-(1-hydroxy-3-isobutoxypropan-2-yl)-2-methylimidazo[1,2-a]-pyridine-3-carboxamide], the “MEC (minimal effective concentration)” value came out at 1.0 µM.

For `Cc1cc(OCCC(C(F)(F)F)C(F)(F)F)c2nc(C)c(C(=O)NC(CCCC(F)(F)F)C(C)(C)O)n2c1` (racemic) [Example 170, rac-2,6-Dimethyl-N-(7,7,7-trifluoro-2-hydroxy-2-methylheptan-3-yl)-8-[4,4,4-trifluoro-3-(trifluoromethyl)butoxy]imidazo[1,2-a]pyridine-3-carboxamide], the “MEC (minimal effective concentration)” value is 3.0 µM.

For the compound `CCC(O)CNC(=O)c1c(C)nc2c(OCCC(C(F)(F)F)C(F)(F)F)cc(C)cn12` (racemic) [Example 174, rac-N-(2-hydroxybutyl)-2,6-dimethyl-8-[4,4,4-trifluoro-3-(trifluoromethyl)butoxy]imidazo[1,2-a]pyridine-3-carboxamide], the “MEC (minimal effective concentration)” value came out at 3.0 µM.

As to `Cc1cc(OCCC(C(F)(F)F)C(F)(F)F)c2nc(C)c(C(=O)NCC(O)c3ccc(Cl)cc3)n2c1` (racemic) [Example 175, rac-N-[2-(4-chlorophenyl)-2-hydroxyethyl]-2,6-dimethyl-8-[4,4,4-trifluoro-3-(trifluoromethyl)butoxy]imidazo[1,2-a]pyridine-3-carboxamide], the “MEC (minimal effective concentration)” value was 3.0 µM.

For the compound `Cc1cc(OCC2CC(F)(F)C2)c2nc(C)c(C(=O)NC(CCCC(F)(F)F)C(C)(C)O)n2c1` (racemic) [Example 176, rac-8-[(3,3-Difluorocyclobutyl)methoxy]-2,6-dimethyl-N-(7,7,7-trifluoro-2-hydroxy-2-methylheptan-3-yl)imidazo[1,2-a]pyridine-3-carboxamide], the “MEC (minimal effective concentration)” value worked out at 3.0 µM.

On to `Cc1cc(OCc2ncccc2F)c2nc(C)c(C(=O)NC(CCCC(F)(F)F)C(C)(C)O)n2c1` (racemic) [Example 178, rac-8-[(3-fluoropyridin-2-yl)methoxy]-2,6-dimethyl-N-(7,7,7-trifluoro-2-hydroxy-2-methylheptan-3-yl)imidazo[1,2-a]pyridine-3-carboxamide trifluoroacetate], for which the “MEC (minimal effective concentration)” value was determined as 1 µM.

With `Cc1nc2c(OCc3ncccc3F)cccn2c1C(=O)NC(CCCC(F)(F)F)C(C)(C)O` (racemic) [Example 179, rac-8-[(3-fluoropyridin-2-yl)methoxy]-2-methyl-N-(7,7,7-trifluoro-2-hydroxy-2-methylheptan-3-yl)imidazo(1,2-a]pyridine-3-carboxamide], the “MEC (minimal effective concentration)” value came to 1 µM.

Turning to `Cc1nc2c(OCc3ncccc3F)cccn2c1C(=O)NC(CC(F)(F)F)C(C)(C)O` (racemic) [Example 180, rac-8-[(3-Fluoropyridin-2-yl)methoxy]-2-methyl-N-(1,1,1-trifluoro-4-hydroxy-4-methylpentan-3-yl)imidazo[1,2-a]pyridine-3-carboxamide], the “MEC (minimal effective concentration)” value amounted to 1 µM.

As for `Cc1cc(OCc2ncccc2F)c2nc(C)c(C(=O)NC(CC(F)(F)F)C(C)(C)O)n2c1` (racemic) [Example 184, rac-8-[(3-fluoropyridin-2-yl)methoxy]-2,6-dimethyl-N-(1,1,1-trifluoro-4-hydroxy-4-methylpentan-3-yl)imidazo[1,2-a]pyridine-3-carboxamide (racemate)], the “MEC (minimal effective concentration)” value is 1 µM.

Regarding `Cc1cc(OCc2ncccc2F)c2nc(C)c(C(=O)NC(CCC(F)(F)C(F)(F)F)C(C)(C)O)n2c1` (racemic) [Example 186, rac-8-[(3-fluoropyridin-2-yl)methoxy]-2,6-dimethyl-N-(6,6,7,7,7-pentafluoro-2-hydroxy-2-methylheptan-3-yl)imidazo[1,2-a]pyridine-3-carboxamide (racemate)], the “MEC (minimal effective concentration)” value is 1 µM.

With `Cc1cc(OCc2ncccc2F)c2nc(C)c(C(=O)NC(CCCC(F)(F)C(F)(F)F)C(C)(C)O)n2c1` (racemic) [Example 190, rac-8-[(3-fluoropyridin-2-yl)methoxy]-2,6-dimethyl-N-(7,7,8,8,8-pentafluor-2-hydroxy-2-methyloctan-3-yl)imidazo[1,2-a]pyridine-3-carboxamide (racemate)], the “MEC (minimal effective concentration)” value was 1 µM.

As to `Cc1cc(OCc2ncccc2F)c2nc(C)c(C(=O)NCC(O)C(F)(F)F)n2c1` (racemic) [Example 197, rac-8-[(3-fluoropyridin-2-yl)methoxy]-2,6-dimethyl-N-(3,3,3-trifluoro-2-hydroxypropyl)imidazo[1,2-a]pyridine-3-carboxamide], the “MEC (minimal effective concentration)” value is 3 µM.

Turning to `Cc1nc2c(OCC3CCCCC3)cccn2c1C(=O)N[C@@H]1CCC[C@@H]1O` (relative stereo) [Example 81, 8-(cyclohexylmethoxy)-N-[cis-2-hydroxycyclopentyl]-2-methylimidazo[1,2-a]-pyridine-3-carboxamide], the “MEC (minimal effective concentration)” value worked out at 0.65 µM.

`Cc1nc2c(OCc3c(F)cccc3F)cccn2c1C(=O)NC(CO)CCC(O)C(F)(F)F` (single isomer, unassigned) [Example 138, 8-[(2,6-Difluorobenzyl)oxy]-2-methyl-N-(6,6,6-trifluoro-1,5-dihydroxyhexan-2-yl)imidazo[1,2-a]-pyridine-3-carboxamide]: the “MEC (minimal effective concentration)” value is 0.1 µM.

On to `CCCCC(NC(=O)c1c(C)nc2c(OCCC(C)C)cc(C)cn12)C(C)(C)O` (single isomer, unassigned) [Example 167, ent-N-(2-Hydroxy-2-methylheptan-3-yl)-2,6-dimethyl-8-(3-methylbutoxy)imidazo[1,2-a]pyridine-3-carboxamide], for which the “MEC (minimal effective concentration)” value was found to be 2.0 µM.

As for `Cc1cc(OCCC(C)C)c2nc(C)c(C(=O)NC(CCCC(F)(F)F)C(C)(C)O)n2c1` (single isomer, unassigned; ent-2) [Example 168, ent-2,6-Dimethyl-8-(3-methylbutoxy)-N-(7,7,7-trifluoro-2-hydroxy-2-methylheptan-3-yl)imidazo-[1,2-a]pyridine-3-carboxamide], the “MEC (minimal effective concentration)” value is 3.0 µM.

With `Cc1cc(OCc2c(F)ccc(F)c2F)c2nc(C)c(C(=O)NC(CCC(F)(F)C(F)(F)F)C(C)(C)O)n2c1` (single isomer, unassigned; ent-2) [Example 198, ent-2,6-dimethyl-N-(6,6,7,7,7-pentafluoro-2-hydroxy-2-methylheptan-3-yl)-8-[(2,3,6-trifluorobenzyl)oxy]imidazo[1,2-a]pyridine-3-carboxamide], the “MEC (minimal effective concentration)” value is 0.03 µM.
